In EP3839043A1, “SCREENING METHODS FOR COMPOUNDS MODULATING POLYAMINE TRANSPORT” (Katholieke Universiteit Leuven, priority 2019, dated 2021):
Structures can show the parent of a compound that is named as a salt.

Experiments:
[1] = molecular target: T1, Microsomal ATP13A2 (Homo sapiens, UniProt Q9NQ11); experiment: ATPase assay (ADP-Glo Max), solubilized microsomes of SH-SY5Y cells overexpressing ATP13A2 WT; assay type: biochemical; details: for ATPase activity of ATP13A2 WT, screen for candidate substrates: 100 nM CaCl2, MnCl2, ZnCl2 or FeCl3, 100 µM SPD or SPM; for ATPase activity of ATP13A2, dose-response: indicated doses, microsomes 5 µg
T1 construct: expressed in transfected cells; host or cells: SH-SY5Y human neuroblastoma cells, lentiviral transduction; microsomes solubilised with DDM
T1 sequence (Q9NQ11 1-1175 isoform Q9NQ11-3): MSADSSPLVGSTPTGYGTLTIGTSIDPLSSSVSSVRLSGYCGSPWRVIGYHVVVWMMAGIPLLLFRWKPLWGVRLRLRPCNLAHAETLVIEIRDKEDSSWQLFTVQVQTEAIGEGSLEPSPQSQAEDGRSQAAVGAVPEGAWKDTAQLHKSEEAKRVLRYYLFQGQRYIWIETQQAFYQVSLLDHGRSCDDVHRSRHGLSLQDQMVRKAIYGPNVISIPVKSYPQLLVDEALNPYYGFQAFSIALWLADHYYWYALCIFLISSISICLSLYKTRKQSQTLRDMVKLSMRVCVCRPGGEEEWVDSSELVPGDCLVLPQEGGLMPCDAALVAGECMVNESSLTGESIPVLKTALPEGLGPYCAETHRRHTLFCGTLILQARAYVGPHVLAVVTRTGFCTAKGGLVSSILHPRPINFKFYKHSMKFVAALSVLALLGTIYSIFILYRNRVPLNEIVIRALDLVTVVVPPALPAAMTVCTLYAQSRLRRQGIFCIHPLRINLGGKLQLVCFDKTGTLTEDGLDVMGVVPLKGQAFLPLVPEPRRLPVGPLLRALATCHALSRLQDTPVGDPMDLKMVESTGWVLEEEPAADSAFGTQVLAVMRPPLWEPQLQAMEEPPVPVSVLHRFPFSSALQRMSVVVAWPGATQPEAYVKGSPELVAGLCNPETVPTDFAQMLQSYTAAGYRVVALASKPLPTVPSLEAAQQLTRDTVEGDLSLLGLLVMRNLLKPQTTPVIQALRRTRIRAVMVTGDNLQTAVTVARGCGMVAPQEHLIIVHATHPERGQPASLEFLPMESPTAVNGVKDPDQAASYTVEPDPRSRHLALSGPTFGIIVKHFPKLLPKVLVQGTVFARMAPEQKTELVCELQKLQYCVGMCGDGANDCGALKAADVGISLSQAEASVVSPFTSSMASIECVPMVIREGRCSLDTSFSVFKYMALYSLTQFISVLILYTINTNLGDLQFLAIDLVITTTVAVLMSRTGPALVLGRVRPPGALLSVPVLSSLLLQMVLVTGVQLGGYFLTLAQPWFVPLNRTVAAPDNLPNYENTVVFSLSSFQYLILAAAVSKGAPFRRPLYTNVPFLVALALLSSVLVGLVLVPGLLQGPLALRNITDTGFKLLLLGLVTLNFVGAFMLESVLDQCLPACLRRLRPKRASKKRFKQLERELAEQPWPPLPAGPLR
Method: Membrane fractionation - Transduced SH-SY5Y cells were seeded in […] at a density of 6 x 10^6 cells per plate. 24 h later, the cells were harvested following trypsinization and brief centrifugation (300 x g, 5 min). Subcellular fractionation was performed by differential centrifugation. The microsomal protein concentration was measured using the bicinchoninic acid assay (Thermo Fischer Scientific, Pierce) according to the manufacturer's instructions.
ATPase assay - The ATPase activity of ATP13A2 was assessed using a commercially available luminescence assay (ADP-Glo Max assay, Promega) that monitors the production of ADP via luciferase activity. The reactions were performed for 30 min (37°C) in a final volume of 25 µl. […] The assay was started by the addition of 5 mM ATP and was terminated by adding 25 µl of ADP-Glo Reagent. The 96-well plate was then incubated for 40 min at room temperature, followed by the addition of 50 µl of ADP-Glo Max Detection Reagent. After 40 min, luminescence was detected using a FlexStation 3.0 system (Molecular Devices). Dose-response curves and n/Km/Vmax values were calculated using GraphPad Prism Software (GraphPad Software Inc.).

[2] = molecular target: T2, Purified ATP13A2 (Homo sapiens, UniProt Q9NQ11); experiment: ATPase assay (ADP-Glo Max), purified ATP13A2 from yeast expression system; assay type: biochemical; parameters: we obtained >95% pure, full length and solubilized ATP13A2; biotin acceptor domain (BAD) tag behind a thrombin cleavage site (C, cleaved yes); made in house; host or cells: S. cerevisiae W303-1B/Gal4-ΔPep4, pYeDP60 vector; details: for lipid concentration of maximal effect on ATPase activity / ATP13A2 activity, effect of regulatory lipids: purified ATP13A2; for lipid concentration of maximal effect on ATPase activity: 2 mM SPM; for ATP13A2 activity, effect of regulatory lipids: only in the presence of SPM
T2 sequence (Q9NQ11 1-1175 isoform Q9NQ11-3): T1 sequence (Q9NQ11 1-1175 isoform Q9NQ11-3)
Method: ATPase assay - The ATPase activity of ATP13A2 was assessed using a commercially available luminescence assay (ADP-Glo Max assay, Promega) that monitors the production of ADP via luciferase activity. The reactions were performed for 30 min (37°C) in a final volume of 25 µl. The assay reaction mixture contained 50 mM MOPS-KOH (pH 7), 100 mM KCI, 11 mM MgCl2, 1 mM DTT, 195 µM DDM, various concentrations of the indicated compound, and either microsomes (5 µg) harvested from SH-SY5Y cells overexpressing ATP13A2 (WT or mutants) or purified ATP13A2 (0.5 µg). When purified ATP13A2 was used, we included 125 µM PA, 125 µM PI(3,5)P2 and 19.5 µM DDM in the reaction buffer. The assay was started by the addition of 5 mM ATP and was terminated by adding 25 µl of ADP-Glo Reagent. The 96-well plate was then incubated for 40 min at room temperature, followed by the addition of 50 µl of ADP-Glo Max Detection Reagent. After 40 min, luminescence was detected using a FlexStation 3.0 system (Molecular Devices). Dose-response curves and n/Km/Vmax values were calculated using GraphPad Prism Software (GraphPad Software Inc.).
Transformation and overexpression of ATP13A2 in yeast - The S. cerevisiae W303-1B/Gal4-ΔPep4 strain (leu2-3, his3-11,15, trp1-1::TRP1-GAL10-GAL4, ura3-1, ade2-1, canr, cir^+, ΔPep4 MAT; a kind gift from Rosa Lopez Marques) was transformed according to the lithium acetate/single-stranded carrier DNA/polyethylene glycol method [Gietz, R. D. & Woods, R. A. Methods Enzymol 350, 87-96 (2002)], with the pYeDP60 vector containing a yeast codon optimized version of human ATP13A2 variant 2 (WT or the catalytically dead E343A mutant) followed by a thrombin cleavage site and a C-terminal BAD tag [Azouaoui, H. et al. PLoS One 9, e112176, (2014); Jidenko, M. et al.Protein Expr Purif 48, 32-42, (2006)]. The transformation mixture was grown for 48 h at 30°C on minimal medium agar plates lacking uracil (0.54% yeast nitrogen base without amino acids, 0.12% yeast drop-out mix without Ura, 2% glucose, and 2% agar) to select yeast colonies that acquired the plasmid. These colonies were then cultured in 20 ml of MM-Ura medium (0.67% yeast nitrogen base without amino acids, 0.19% yeast drop-out mix without Ura, and 2% glucose) and grown for 24 h at 28°C and 200 rpm. The MM-Ura yeast pre-culture was used to inoculate 100 ml of MM-Ura medium to a final OD600 of 0.2, followed by a 12 h incubation period (28°C and 200 rpm). The second pre-culture was inoculated into 4.5 l of YPGE2X medium (2% yeast extract, 2% bactopeptone, 1% glucose, and 2.7% ethanol) to a final OD600 of 0.05 and grown for 36 h (28°C and 175 rpm). ATP13A2-BAD expression was induced with 2% galactose, followed by a second galactose induction 12 h later. After another 12 h, the pellet was collected (1,000 x g; 10 min; 4°C).
Yeast membrane preparation - Yeast cells were broken with glass beads using a BeadBeater (BioSpec products). The lysis buffer contained 50 mM Tris-HCI (pH 7.5), 1 mM EDTA, 0.6 M sorbitol, 1 mM phenylmethylsulfonyl fluoride and SigmaFast protease inhibitor. To remove cell debris and nuclei, the crude extract was centrifuged at 2,000 x g for 20 min (4°C). The supernatant (S1) was centrifuged at 20,000 x g for 20 min (4°C) to pellet the heavy membrane fraction (P2), and the resulting supernatant (S2) was further centrifuged at 200,000 x g for 1 h (4°C). The resulting pellet (i.e., the light membrane fraction, P3) was resuspended in 20 mM HEPES-Tris (pH 7.4), 0.3 M sucrose and 0.1 mM CaCl2. The total protein concentration was determined using a Bradford assay (B6916, Sigma-Aldrich).
ATP13A2-BAD purification - The method used to purify ATP13A2 was based on the purification of overexpressed Drs2p from yeast membranes. Yeast P3 membranes were diluted to 5 mg of total protein/ml in SSR buffer (50 mM MOPS-KOH (pH 7), 100 mM KCI, 20% glycerol, 5 mM MgCl2, 1 mM DTT, and SigmaFast protease inhibitor cocktail) and solubilized using DDM, with a detergent to protein ratio of 1:1.

[3] = test system: SH-SY5Y cells; experiment: MUH cytotoxicity assay; assay type: cell-based, human; details: increasing concentrations, 24 h
Method: MUH cytotoxicity assay - SH-SY5Y cells were seeded in 96-well plates (1 X 10^4 cells per well) and allowed to adhere overnight. The cells were subsequently treated with increasing doses of the indicated compounds for 24-48 h. Following exposure, the cells were washed with PBS and stained with 300 µg/ml MUH (prepared in DMSO, dissolved in PBS) for 30 min at 37°C.

ATPase activity of ATP13A2 WT, screen for candidate substrates [1] | Structure (SMILES) | ATPase activity of ATP13A2, dose-response [1] | further results
had no effect | [Ca+2].[Cl-].[Cl-] [CaCl2] | – | –
did not increase ATP13A2 activity | [Cl][Fe]([Cl])[Cl] [FeCl3] | – | –
did not increase ATP13A2 activity | [Cl][Mn][Cl] [MnCl2] | – | –
– | CC(=O)NCCCNCCCCNCCCN [N1-acetylspermine, N^1-acetylspermine trihydrochloride] | stimulate ATPase activity in a concentration-dependent manner | Vmax ± SEM ([1]; Microsomal ATP13A2): 98 ± 5 nmol ADP/mg/min
– | CCCCCCCC/C=C\CCCCCCCC(=O)OC[C@H](COP(=O)(O)O)OC(=O)CCCCCCC/C=C\CCCCCCCC [PA, 1,2-dioleoyl-sn-glycero-3-phosphate (sodium salt)] | – | lipid concentration of maximal effect on ATPase activity [2]: 125 µM; ATP13A2 activity, effect of regulatory lipids [2]: strongly stimulated
– | CCCCCCCC/C=C\CCCCCCCC(=O)OC[C@H](COP(=O)(O)O[C@@H]1[C@H](O)[C@H](OP(=O)(O)O)[C@@H](O)[C@H](OP(=O)(O)O)[C@H]1O)OC(=O)CCCCCCC/C=C\CCCCCCCC [PI(3,5)P2, 1,2-dioleoyl-sn-glycero-3-phospho-(1'-myo-inositol-3',5'-bisphosphate) (ammonium salt)] | – | lipid concentration of maximal effect on ATPase activity [2]: 125 µM; ATP13A2 activity, effect of regulatory lipids [2]: strongly stimulated
did not increase ATP13A2 activity | [Cl-].[Cl-].[Zn+2] [ZnCl2] | – | –
– | N=C(N)NCCCCN.O=S(=O)(O)O [agmatine, agmatine sulfate salt] | did not induce ATP13A2 activity | –
– | NCCCCCN [cadaverine] | did not induce ATP13A2 activity | –
– | Cl.NCCc1ccc(O)c(O)c1 [dopamine, dopamine hydrochloride] | did not induce ATP13A2 activity | –
– | NCCc1c[nH]cn1 [histamine] | did not induce ATP13A2 activity | –
– | [Na+].[Na+].[Na+].[O]=[V]([O-])([O-])[O-] [orthovanadate, sodium orthovanadate] | – | SPM-induced ATPase activity, inhibition ([2]; 1 mM SPM, 0.25 mM orthovanadate, 125 µM PA/PI(3,5)P2): blocked
– | Cl.Cl.NCCCCN [putrescine, putrescine dihydrochloride] | did not induce ATP13A2 activity | viability of control cells [3]: not cytotoxic
